Two compounds from US20210024545A1, “SUBSTITUTED DIAZAHETERO-BICYCLIC COMPOUNDS AND THEIR USE” (Bayer Aktiengesellschaft, priority 2016, published 2021) can be followed below.

What all share (assay type): cell-based
The target of experiment [1] is T1, human TASK-1 (Homo sapiens, UniProt O14649). As to the kind of experiment: Two-electrode voltage clamp analysis of human TASK-1 channel in Xenopus laevis oocytes (B-1). The conditions noted are these: Xenopus laevis oocytes injected with TASK-1 cRNA, 21-22° C. Also noted: expressed in transfected cells; host or cells: Xenopus laevis oocytes injected with cRNA. How it is done: (§1) B-1. In Vitro Electrophysiological Analysis of the Human TASK-1 and TASK-3 Channels via Two-Electrode Voltage Clamp Technique in Xenopus laevis Oocytes
T1 sequence (O14649 whole entry): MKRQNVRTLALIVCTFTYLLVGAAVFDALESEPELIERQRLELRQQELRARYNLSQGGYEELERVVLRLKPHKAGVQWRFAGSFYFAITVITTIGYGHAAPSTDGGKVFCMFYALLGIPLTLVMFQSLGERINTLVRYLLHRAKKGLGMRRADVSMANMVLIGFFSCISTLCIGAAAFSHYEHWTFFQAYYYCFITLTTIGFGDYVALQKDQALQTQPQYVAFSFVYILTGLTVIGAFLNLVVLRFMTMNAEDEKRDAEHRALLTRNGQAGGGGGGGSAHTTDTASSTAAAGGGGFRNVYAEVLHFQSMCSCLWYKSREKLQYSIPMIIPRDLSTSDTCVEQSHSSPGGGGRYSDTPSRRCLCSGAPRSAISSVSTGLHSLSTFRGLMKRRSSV
(§2) Xenopus laevis oocytes were selected as described elsewhere by way of illustration [Decher et al., FEBS Lett. 492, 84-89 (2001)]. Subsequently, the oocytes were injected with 0.5-5 ng of a cRNA solution coding for TASK-1 or TASK-3. For the electrophysiological analysis of the channel proteins expressed in the oocytes, the two-electrode voltage clamp technique [Stühmer, Methods Enzymol. 207, 319-339 (1992)] was used. The measurements were conducted as described [Decher et al., FEBS Lett. 492, 84-89 (2001)] at room temperature (21-22° C.) using a Turbo TEC 10CD amplifier (NPI), recorded at 2 kHz and filtered with 0.4 kHz. Substance administration was performed using a gravitation-driven perfusion system. Here, the oocyte is located in a measuring chamber and exposed to the solution stream of 10 ml/min The level in the measuring chamber is monitored and regulated by sucking off the solution using a peristaltic pump.

Experiment [2] has as its target T2, human TASK-3 (Homo sapiens, UniProt Q9NPC2). As to the kind of experiment: Inhibition of recombinant TASK-3 in stably transfected CHO cells, KCl-induced depolarization, voltage-sensitive dye (B-2). Also noted: expressed in transfected cells; host or cells: stably transfected CHO cells. The settings on record: depolarization induced by 40 mM potassium chloride, some mean values from multiple determinations. Summed up:
(§3)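 Stably transfected CHO cells loaded with a voltage-sensitive membrane potential dye. Depolarization was induced with 40 mM KCl, and compound inhibition of it was read by fluorescence. IC50 is the concentration blocking half of the KCl-induced depolarization; some values are means of multiple independent determinations.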

Experiment [3] has as its target T1, human TASK-1. Kind of experiment: Washout rate after binding to the human TASK-1 channel, two-electrode voltage clamp in Xenopus laevis oocytes (B-4). Also noted: expressed in transfected cells; host or cells: Xenopus laevis oocytes injected with cRNA transcribed from the pSGEM vector. The settings on record: TASK-1 inhibited beforehand by about 40% at the concentration of Table 3 (30-80 nM); restoration of current recorded over at least one hour. From the text: The washout rate is defined as the washout of a compound according to the invention from the TASK-1 channel in % h^−1, measured by means of electrophysiological analysis on TASK-1-expressing Xenopus laevis oocytes via the two-electrode voltage clamp technique according to the description in section B-4.
B-4. In Vitro Electrophysiological Analysis of the Washout Rate of Compounds After Binding to the Human TASK-1 Channel via Two-Electrode Voltage Clamp Technique in Xenopus laevis Oocytes
Xenopus laevis oocytes were obtained from animals that had been anaesthetized with tricaine. Ovaries were treated with collagenase (1 mg/ml, Worthington, type II), stored in OR2 solution (82.5 mM NaCl, 2 mM KC1, 1 mM MgCl2, 5 mM HEPES; pH 7.4) for 120 min and then kept in the ND96 standard solution (96 mM NaCl, 2 mM KC1, 1.8 mM CaCl2, 1 mM MgCl2, 5 mM HEPES; pH 7.5) with additional sodium pyruvate (275 mg/l), theophylline (90 mg/1) and gentamicin (50 mg/1) at 18° C. hTASK-1 and hTASK-3 were subcloned into the pSGEM vector, and cRNA was produced after linearization with NHEI and in vitro transcription with T7 polymerase. Oocytes were injected individually with 5-20 ng of cRNA solution that encodes hTASK-1. Standard two-electrode voltage clamp recordings [Stühmer, Methods Enzymol. 207, 319-339 (1992)] were conducted at room temperature (21-22° C.) with a Turbo-TEC-10CD amplifier (NPI) as described above [Decher et al., FEBS Lett. 492, 84-89 (2001)]. The measurement interval was 2 kHz, and the data were filtered at 0.4 kHz. Substances were applied in a gravity-driven manner via the bath solution, using ND96. In summary, Xenopus laevis oocytes were selected as described above, injected with TASK-1 cRNA and subjected to an electrophysiological analysis via the two-electrode voltage clamp technique.
The TASK-1 channels were inhibited beforehand by a value of about 40% by administration of one of the compounds of the invention. The concentrations shown in Table 3 below were established here, which had been ascertained beforehand by determining the IC50 values in question. Subsequently, the restoration of the TASK-1-related membrane current was recorded in the voltage clamp over at least one hour. This restoration is caused by the washout of the compound in question from the TASK-1 channel
At least 6 oocytes were examined for every compound. The voltage clamp measurements took a total of at least 1.5 hours (administration of the inhibitor plus at least one subsequent hour of washout measurement).

Experiment [4] deals with T1, human TASK-1. Kind of experiment: Inhibition of recombinant TASK-1 in stably transfected CHO cells, KCl-induced depolarization, voltage-sensitive dye (B-2). Also noted: expressed in transfected cells; host or cells: stably transfected CHO cells. The conditions noted are these: depolarization induced by 40 mM potassium chloride, some mean values from multiple determinations. The gist of the method:
as §3

The target of experiment [5] is T2, human TASK-3. As to the kind of experiment: Two-electrode voltage clamp analysis of human TASK-3 channel in Xenopus laevis oocytes (B-1). Also noted: expressed in transfected cells; host or cells: Xenopus laevis oocytes injected with cRNA. The settings on record: Xenopus laevis oocytes injected with TASK-3 cRNA, 21-22° C. As to the method: as §1, §2

T2 sequence (Q9NPC2 whole entry): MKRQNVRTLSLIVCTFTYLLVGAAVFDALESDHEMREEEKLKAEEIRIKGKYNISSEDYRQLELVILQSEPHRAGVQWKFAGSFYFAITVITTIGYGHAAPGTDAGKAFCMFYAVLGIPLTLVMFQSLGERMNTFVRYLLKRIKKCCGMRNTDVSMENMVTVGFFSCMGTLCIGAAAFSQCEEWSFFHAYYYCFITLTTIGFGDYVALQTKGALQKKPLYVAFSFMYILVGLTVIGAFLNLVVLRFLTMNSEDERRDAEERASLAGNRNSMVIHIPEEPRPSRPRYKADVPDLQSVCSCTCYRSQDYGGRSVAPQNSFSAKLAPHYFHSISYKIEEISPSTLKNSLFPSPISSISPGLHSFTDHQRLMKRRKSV

Consider `COc1cccc(C(=O)N2CC3CCC2CN3Cc2c(-c3ccc(Cl)cn3)nc3ccccn23)n1` (single isomer, unassigned; enantiomer 1) [Example 26, (−)-(5-{[2-(5-Chloropyridin-2-yl)imidazo[1,2-a]pyridin-3-yl]methyl}-2,5-diazabicyclo[2.2.2]oct-2-yl)(6-methoxypyridin-2-yl)methanone (enantiomer 1)], for which the IC50 against human TASK-1 [1] came to 54 ± 16.1 nM; at human TASK-3 [2], 42 nM; on human TASK-1 [4], 690 nM; on human TASK-3 [5], 12 ± 3.3 nM. Moreover, the Washout rate on human TASK-1 [3] was determined as 17 % h^−1.

For the compound `COc1cccc(C(=O)N2C[C@@H]3CC[C@H]2CN3Cc2c(-c3ccc(Cl)cc3)nc3ccccn23)n1` (single isomer, unassigned; enantiomer 1) [Example 21], the IC50 on human TASK-1 [1] is 27.3 ± 5.4 nM; on human TASK-3 [2] it was 60 nM; on human TASK-1 [4], 240 nM; against human TASK-3 [5] it was 16.3 ± 0.9 nM. Moreover, on human TASK-1 [3], the Washout rate is reported as 40 % h^−1.
